Source: patent publication US20220112178A1, “Small Molecule Modulators of RAS GTPase” (Tosk, Inc., priority 2020, published 2022)

Test system: SW620 cells
Assay: Cell proliferation / cytotoxicity assay (CellTiter-Glo) in SW620 cells
Type: cell-based
Conditions: SW620 cells (ATCC CCL-227), 72 hours, CellTiter-Glo 2.0 luminescence
Experimental: Compounds are assayed for inhibition of cell proliferation and killing cancer cells. Cytotoxicity assays are conducted according to the following general procedure. SW620 cells (ATCC CCL-227) are maintained in DMEM Low Glucose (Corning 10-014-CV) media supplemented with 10% fetal bovine serum and 1% PenStrep and grown at 37° C. in 5% CO2. Cells are plated into 96 well flat bottom plates (2 million/plate, ˜20,000/well, 200 μL media/well). The cells are allowed to settle and adhere to the plate bottom overnight. Compounds are diluted in media from a 10 mM stock solution starting at 50 μM, using 2-fold dilutions, in a column in a 96-well plate. Media is removed from the plate containing cells and replaced with media containing diluted compounds, Plates are incubated 72 hours at 37° C. in 5% CO2. Plates are allowed to come to room temperature and 100 μL CellTiter-Glo 2.0 reagent (Promega, G924C) is added at room temperature. Plates are shaken for 2 minutes, then allowed to stand for 15 minutes. Luminescence is read with FLx800 (BioTek Instruments). Data is plotted with GraphPad Prizm 8.0.

Row | SMILES | IC50 (Homo sapiens, SW-620) [µM] | further results
1 | Cc1nc(N[C@@H]2CC[C@H](NC(=O)OC[C@@H]3CCCN3C)C2)nc2ccc(-c3ccnc4c3OCCO4)cc12 [Compound 38] | < 5 | 
2 | Cc1nc(N[C@@H]2CCN(Cc3ccc(Cl)cc3)C2)nc2ccc(-c3cccc4c3CCCC4)cc12 [Compound 92] |  | IC50 (Homo sapiens, SW-620, Table 2): 5 to 10 µM
3 | Cc1nc(N[C@@H]2CC[C@H](N3Cc4ccccc4CC3=O)C2)nc2ccc(-c3ccnc4c3OCCO4)cc12 [Compound 7] | 5 to 10 | 
4 | Cc1nc(N[C@@H]2CC[C@H](NC(=O)c3ccc(Cl)cc3)C2)nc2ccc(-c3cccc4c3OCCO4)cc12 [Compound 2] | 5 to 10 | 
5 | COc1ncccc1-c1ccc2nc(N[C@@H]3CC[C@H](NC(=O)OC(C)(C)C)C3)nc(C)c2c1 [Compound 31] | 5 to 10 | 
6 | Cc1cc(COC(=O)N[C@H]2CC[C@@H](Nc3nc(C)c4cc(-c5ccnc6c5OCCO6)ccc4n3)C2)on1 [Compound 41] | < 5 | 
7 | Cc1nc(N[C@@H]2CC[C@H](N3Cc4ccccc4CC3=O)C2)nc2ccc(-c3cccc4c3OCCO4)cc12 [Compound 3] | 5 to 10 | 
8 | Cc1nc(N[C@@H]2CC[C@H](NC(=O)OC(C)(C)C)C2)nc2ccc(-c3c(Cl)cnc4c3OCCO4)cc12 [Compound 44] | < 5 | 
9 | Cc1nc(N[C@@H]2CC[C@H](NC(=O)OCc3ncco3)C2)nc2ccc(-c3ccnc4c3OCCO4)cc12 [Compound 35] | < 5 | 
10 | Cc1ccc2ccc(F)c(-c3ccc4nc(N[C@@H]5CC[C@H](NC(=O)OC(C)(C)C)C5)nc(C)c4c3)c2n1 [Compound 15] | 5 to 10 | 
11 | C=CC(=O)N[C@H]1CC[C@@H](Nc2nc(C)c3cc(-c4ccnc5c4OCCO5)ccc3n2)C1 [Compound 42] | < 5 | 
12 | Cc1nc(N[C@@H]2CC[C@H](NC(=O)OCc3nccn3C)C2)nc2ccc(-c3ccnc4c3OCCO4)cc12 [Compound 34] | < 5 | 
13 | Cc1nc(N[C@@H]2CC[C@H](NC(=O)OCc3ccno3)C2)nc2ccc(-c3ccnc4c3OCCO4)cc12 [Compound 40] | < 5 | 
14 | Cc1nc(N[C@@H]2CC[C@H](NC(=O)c3nnn(C(C)(C)C)n3)C2)nc2ccc(-c3ccnc4c3OCCO4)c(F)c12 [Compound 48] | < 5 | 
15 | Cc1nc(N[C@@H]2CC[C@H](N)C2)nc2ccc(-c3ccnc4c3OCCO4)cc12 [Compound 10] | 5 to 10 | 
16 | Cc1nc(N[C@@H]2CC[C@H](NC(=O)c3ccc(Cl)cc3)C2)nc2ccc(-c3cccc4c3CCCC4)cc12 [Compound 5] | < 5 | 
17 | Cc1nc(N[C@@H]2CC[C@H](NC(=O)c3ccc(Cl)cc3)C2)nc2ccc(-c3ccnc4c3OCCO4)cc12 [Compound 8] | < 5 | 
18 | Cc1ccc2ccc(F)c(-c3ccc4nc(N[C@@H]5CC[C@H](NC(=O)OC(C)(C)C)C5)nc(C)c4c3)c2n1 [Compound 30] |  | IC50: 5 to 10 µM
19 | Cc1nc(N[C@@H]2CC[C@H](NC(=O)c3nnn(C(C)(C)C)n3)C2)nc2ccc(-c3ccnc4c3OCCO4)cc12 [Compound 47] | < 5 | 
20 | Cc1nc(N[C@@H]2CC[C@H](NC(=O)Cn3cccn3)C2)nc2ccc(-c3cccc4c3CCCC4)cc12 [Compound 29] | < 5 | 
21 | Cc1nc(N[C@@H]2CC[C@H](N3CCNC3=O)C2)nc2ccc(-c3ccnc4c3OCCO4)cc12 [Compound 26] | 5 to 10 | 
22 | Cc1nc(N[C@@H]2CC[C@H](NC(=O)OC(C)(C)C)C2)[n+]([O-])c2ccc(-c3ccnc4c3OCCO4)cc12 [Compound 46] | < 5 | 
23 | Cc1nc(N[C@@H]2CC[C@H](NC(=O)OC(C)(C)C)C2)nc2ccc(-c3ccnc4c3OCCO4)cc12 [Compound 4] | < 5 | 

Row | SMILES | IC50 (Homo sapiens, SW-620) [µM] | further results
24 | Cc1nc(N[C@@H]2CC[C@H](NC(=O)O[C@H]3CCN(C)C3)C2)nc2ccc(-c3ccnc4c3OCCO4)cc12 [Compound 33] | < 5 | 
25 | Cc1nc(N[C@@H]2CC[C@@H](NC(=O)OC(C)(C)C)C2)nc2ccc(-c3ccnc4c3OCCO4)cc12 [Compound 11] | < 5 | 
26 | Cc1nc(N[C@@H]2CC[C@H](NC(=O)OC(C)(C)C)C2)nc2ccc(-c3ccnc4c3OCCO4)cc12 [Compound 19] |  | IC50: < 5 µM
27 | Cc1nc(N[C@@H]2CC[C@H](NC(=O)OC(C)(C)C)C2)nc2ccc(-c3ccnc4c3OCCO4)c(F)c12 [Compound 43] | < 5 | 
28 | Cc1ncccc1C(=O)N[C@H]1CC[C@@H](Nc2nc(C)c3cc(-c4ccnc5c4OCCO5)ccc3n2)C1 [Compound 14] | < 5 | 
29 | Cc1nc(N[C@@H]2CC[C@H](NC(=O)C(C)(C)C)C2)nc2ccc(-c3ccnc4c3OCCO4)cc12 [Compound 27] | < 5 | 
30 | Cc1nc(N[C@@H]2CC[C@H](NC(=O)c3ccccc3Cl)C2)nc2ccc(-c3ccnc4c3OCCO4)cc12 [Compound 6] | < 5 | 
31 | Cc1ccc2ccc(F)c(-c3ccc4nc(N[C@@H]5CC[C@@H](NC(=O)OC(C)(C)C)C5)nc(C)c4c3)c2n1 [Compound 12] | 5 to 10 | 
32 | Cc1nc(N[C@H]2CCN(Cc3ccc(Cl)cc3)C2)nc2ccc(-c3cccc4c3CCCC4)cc12 [Compound 91] |  | IC50 (Homo sapiens, SW-620, Table 2): < 5 µM
33 | Cc1ccc2ccc(F)c(-c3ccc4nc(N[C@H]5CC[C@@H](NC(=O)OC(C)(C)C)C5)nc(C)c4c3)c2n1 [Compound 28] | 5 to 10 | 
34 | Cc1nc(N[C@H]2CC[C@@H](NC(=O)OC(C)(C)C)C2)nc2ccc(-c3ccnc4c3OCCO4)cc12 [Compound 18] | < 5 | 
35 | Cc1nc(N[C@@H]2CC[C@H](NC(=O)OC(C)(C)C)C2)nc2ccc(-c3cc[n+]([O-])c4c3OCCO4)cc12 [Compound 45] | < 5 | 
36 | Cc1nn(C)c(C(=O)N[C@H]2CC[C@@H](Nc3nc(C)c4cc(-c5ccnc6c5OCCO6)ccc4n3)C2)c1Cl [Compound 13] | < 5 | 
37 | Cc1nc(N[C@@H]2CC[C@H](NC(=O)OC[C@H]3CCCN3C)C2)nc2ccc(-c3ccnc4c3OCCO4)cc12 [Compound 37] | < 5 | 
38 | Cc1nccc(-c2ccc3nc(N[C@@H]4CC[C@H](NC(=O)OC(C)(C)C)C4)nc(C)c3c2)c1Cl [Compound 16] | 5 to 10 | 
39 | Cc1nc(N[C@@H]2CC[C@H](NC(=O)OC(C)(C)C)C2)nc2ccc(-c3cccc4c3OCCO4)cc12 [Compound 1] | 5 to 10 | 
40 | Cc1nc(N[C@@H]2CC[C@H](NS(=O)(=O)c3ccc(C#N)cc3)C2)nc2ccc(-c3ccnc4c3OCCO4)cc12 [Compound 32] | < 5 | 
41 | Cc1nc(N[C@@H]2CC[C@H](NC(=O)O[C@@H]3CCN(C)C3)C2)nc2ccc(-c3ccnc4c3OCCO4)cc12 [Compound 39] | < 5 | 
42 | Cc1nc(N[C@@H]2CC[C@H](NC(=O)OCc3ccon3)C2)nc2ccc(-c3ccnc4c3OCCO4)cc12 [Compound 36] | < 5 | 
43 | Cc1nccc(-c2ccc3nc(N[C@@H]4CC[C@H](NC(=O)c5ccc(Cl)cc5)C4)nc(C)c3c2)c1Cl [Compound 9] | < 5 | 
44 | Cc1nc(N[C@@H]2CC[C@H](NC(=O)OC(C)(C)C)C2)nc2ccc(-c3ccnc4c3OCCO4)cc12 [Compound 17] |  | IC50: < 5 µM
45 | COc1nccc(-c2ccc3nc(N[C@@H]4CC[C@H](NC(=O)OC(C)(C)C)C4)nc(C)c3c2)c1Cl [Compound 21] | 5 to 10 | 
46 | COc1c(Cl)cccc1-c1ccc2nc(N[C@@H]3CC[C@H](NC(=O)OC(C)(C)C)C3)nc(C)c2c1 [Compound 22] | 5 to 10 | 
